From patent US20140056952A1, “METHODS AND COATINGS FOR TREATING BIOFILMS” (President and Fellows of Harvard College, priority 2011, published 2014)
Entries after “also recorded” stand apart in the source; their conditions may differ.

Columns and labels:
[1] = system: B. subtilis wild-type cells; experiment: Biofilm formation on solid biofilm medium; format: cell-based, Bacillus subtilis; settings: 1 μl cells mixed with 1 μl (1 mM) polyamine
Procedure: B. subtilis wild-type cells were grown to a mid-logarithmic phase and 1 μl of cells was mixed with 1 μl (1 mM) of each polyamine. The mixture was plated on solid biofilm medium.
B. subtilis wild-type cells were grown to a mid-logarithmic phase and 1 μl of cells was either mixed with PBS (18C) or mixed with 1 μl (1 mM) of each polyamine (18D). The mixture was plated on solid biofilm medium. “3*” refers to 1,5,9-Triazacyclododecane.

[2] = system: B. subtilis strain NCBI3610; experiment: Pellicle (biofilm) formation inhibition assay in liquid biofilm-inducing medium; format: cell-based, Bacillus subtilis; settings: for concentration needed for inhibition of biofilm formation: B. subtilis pellicle formation; for inhibition of pellicle formation: final concentration of 50 μM; for biofilm-inhibitory activity (library of polyamines): B. subtilis
Procedure: Bacillus subtilis strains PY79, 3610 and their derivatives were grown in Luria-Bertani (LB) medium at 37° C. or MSgg medium (1) at 23° C. Solid media contained 1.5% Bacto agar. When appropriate, antibiotics were added at the following concentrations for growth of B. subtilis: 10 μg per ml of tetracycline, and 5 μg per ml of erythromycin, 500 μg per ml of spectinomycin.
B. subtilis strain NCBI3610 was grown at 22° C. in 12-well plates in liquid biofilm-inducing medium for 3 or 8 days. Conditioned medium (500 ml) from an 8-day-old culture was concentrated on the C-18 column and eluted step-wise with methanol.
To identify the second biofilm-inhibiting factor, high-performance liquid chromatography (HPLC) was carried out on the 25% methanol eluate using a phenyl-hexyl column. […] Cells of NCBI3610 were grown in fresh medium containing PBS buffer (control), norspermidine (100 μM), morpholine (100 μM) HPLC-purified fatty acid (˜100 μM), or spermidine (100 μM).
Pellicle formation of strain NCBI 3610 was tested in the presence of the indicated concentrations of norspermidine (FIG. 1D) or spermidine (FIG. 1E).
To identify features of norspermidine important for its biofilm disassembly activity, we tested a library of polyamines in our biofilm inhibition assay (FIGS. 9A, 9B, 10 and Table 2).
The effect of polyamines on pellicle formation by B. subtilis was examined. B. subtilis wild-type cells were grown to a mid-logarithmic phase and diluted 1:1000 in biofilm media applied with each polyamine to the final concentration of 50 μM.
The effect of cyclic polyamines on biofilm formation by B. subtilis was examined. B. subtilis wild-type cells were grown to a mid-logarithmic phase and diluted 1:1000 in biofilm media (18A) or in a medium applied with cyclic compound 1,5,9-Triazacyclododecane to the final concentration of 50 μM (18B).

[3] = system: exopolysaccharide of B. subtilis NCBI 3610 cells; experiment: Fluorescence microscopy of exopolysaccharide with concanavalin A-Texas Red; format: cell-based, Bacillus subtilis; settings: norspermidine 25 μM, spermidine 1 mM
Description: The cells were washed in PBS and stained for exopolysaccharide with a conjugate of concanavalin A with Texas-Red.
(§1) To investigate further, exopolysaccharide was visualized by fluorescence microscopy using a conjugate of the carbohydrate-binding protein concanavalin A with Texas Red (FIG. 5) (McSwain et al., 2005). As evidence of specificity, the conjugate decorated wild-type cells but not cells from a mutant (Δeps) blocked in exopolysaccharide production (FIG. 6A). Indeed, at an exposure at which concanavalin A staining with the wild type strain gave an extremely bright fluorescent signal, little or no signal could be detected for the Δeps mutant, except at long exposures and enhanced brightness (FIG. 6A). Next, we investigated the effects of norspermidine and spermidine. […] Therefore, the difference in the staining was evidently due to differential levels of cell-associated exopolysaccharide. […] Thus, while not being bound to any theory, it is believed that norspermidine disrupts the matrix and by targeting exopolysaccharide.

[4] = system: Proteus mirabilis strain BB2000; experiment: Biofilm formation in polystyrene wells, crystal violet OD 595 nm; format: cell-based; settings: 1 mM, 48 hours at 30° C., vs no treatment control
Procedure: To examine the effects of polyamines on biofilm formation, wells were initially treated with water (no treatment), 1 mM norspermidine, and 1 mM norspermine in 3 ml M9+glucose before inoculation with P. mirabilis. Biofilms were permitted to grow for 48 hours at 30° C. without shaking The amount of biofilm formed was assessed with the standard assay of crystal violet staining (O'Toole G et al., Biofilm formation as microbial development, Annu Rev. Microbiol. (2000) 54:49-79); supernatant was removed from the wells and crystal violet (at […]) was then incubated in each well for 15 minutes at room temperature, followed by removal of the crystal violet from the wells and a subsequent washes with water. Any crystal violet attached the wells was next solubilized with 95% ethanol for 15 minutes at room temperature, and the subsequent optical density at 595 nm in each well was measured with a multiplate reader.

[5] = system: exopolysaccharide of S. aureus cells; experiment: Fluorescence microscopy of exopolysaccharide staining; format: cell-based, Staphylococcus aureus
TasA-mCherry = experiment: Fluorescence microscopy of TasA-mCherry fusion; format: cell-based, Bacillus subtilis; settings: norspermidine 50 μM
Procedure: NCBI 3610 containing the tasA-mCherry fusion (DR30) was grown without shaking in a biofilm medium (upper row) or in the same medium applied with norspermidine (50 μM, lower row). Cells were washed in PBS, and visualized by fluorescence microscopy.
as §1

S. aureus strain SCO1 = experiment: Submerged biofilm formation, crystal violet staining; format: cell-based, Staphylococcus aureus; settings: norspermidine 10 μM, norspermine 100 μM; library at 500 μM
Procedure: (§2) The compounds were tested at 500 μM. Biofilm formation was visualized by crystal violet staining of submerged biofilms.
(§3) Whether polyamines might prevent biofilm formation by other bacteria that produce an exopolysaccharide matrix was examined. […] The compounds were tested at 500 μM. Biofilm formation was visualized by crystal violet staining of submerged biofilms.
Similarly, FIGS. 19A-H show the results of S. aureus strain SC-01 grown to a mid-logarithmic phase and diluted 1:1000 into a 12 wells plate in a TSB medium applied with NaCl (3%) and Glucose (0.5%). The medium was applied with norspermidine (10 μM), norspermine (100 μM) or spermine (500 μM). Planktonic cells were removed (19A-D). Wells were washed once, and incubated with Crystal Violet (0.1%) for 15 mins. Wells were washed twice in DDW (19E-H).
The effect of certain polyamines combined with biofilm-inhibiting D-amino acids in Staphylococcus was examined. S. aureus strain SC-01 was grown to a mid-logarithmic phase and diluted 1:1000 into a 12 wells plate in a TSB medium applied with NaCl (3%) and Glucose (0.5%). The medium was applied with either norspermidine or D-tyrosine or both as indicated below each panel. Planktonic cells were removed Wells were washed once, and incubated with Crystal Violet (0.1%) for 15 mins. Wells were washed twice in DDW.

B. subtilis NCBI 3610 = experiment: Cell growth in MSgg medium with shaking; format: cell-based, Bacillus subtilis; settings: norspermidine 100 μM
Procedure: NCBI 3610 was grown in MSgg medium applied with norspermidine (100 μM) with shaking or in untreated medium served as a control (NT). […] Therefore, whether norspermidine interacts directly with the exopolysaccharide was investigated. To attempt to detect such an interaction, dynamic light scattering was used. Dynamic scattering is a standard procedure for measuring the average radius of polymers in which a laser beam is transmitted through a sample containing polymers in solution (Berne, 1976; Orgad et al., 2011; Vinayahan et al., 2010).

[6] = system: B. subtilis strain NCBI3610; experiment: Pellicle (biofilm) formation inhibition assay in liquid biofilm-inducing medium; format: cell-based, Bacillus subtilis
[7] = system: exopolysaccharide of E. coli cells; experiment: Fluorescence microscopy of exopolysaccharide staining; format: cell-based, Escherichia coli
Description: (§4) In testing E. coli, the biofilm-proficient strain MC4100 was selected because a major component of exopolysacchride is colanic acid (Danese et al., 2000; Price and Raivio, 2009).

[8] = system: P. aeriginosa strain PA14; experiment: Biofilm formation on solid M63 medium; format: cell-based, Pseudomonas aeruginosa; settings: 1 μl cells mixed with 1 μl (10 mM) polyamine
Procedure: The effect of polyamines on biofilm formation by Pseudomonas was examined. P. aeriginosa strain PA14 were grown to a mid-logarithmic phase and 1 μl of cells was mixed with 1 μl (10 mM) of each polyamine. The mixture was plated on solid M63 medium.

E. coli strain MC4100 = experiment: Submerged biofilm formation, crystal violet staining; format: cell-based, Escherichia coli; settings: library tested at 500 μM
Procedure: as §2, §3, §4

B. subtilis pellicles = experiment: Disassembly of pre-formed pellicles (OD600 of medium vs pellicle); format: cell-based, Bacillus subtilis; settings: 250 μM applied at day 2, additional 24 hrs
Procedure: After incubation for the indicated times, pellicle material and the medium were separated and each brought to a volume of 3 ml. After mild sonication, the OD600 was determined for each sample. The % of disassembly represents the OD600 of the medium as a percent of the sum of the OD600 of the medium and the OD600 of the pellicle. […] Thus, D-amino acids and norspermidine act synergistically in preventing biofilm formation and triggering the disassembly of mature biofilms.
Whether polyamines could trigger disassembly of biofilms formed by B. subtilis was examined. B. subtilis wild-type cells grown in liquid biofilm medium. Cells were grown to mid-logarithmic phase and diluted 1:1000 in liquid biofilm media. At day 2, pre-formed pellicles were applied with either PBS (A) or norspermine (250 μM) (B). Pellicles were incubated for additional 24 hrs.

NCCCCNCCCN [Molecule 3, spermidine, reference compound]
inhibition of biofilm formation on solid biofilm medium [1]: do not
concentration needed for inhibition of biofilm formation [2]: > 2 mM
inhibition of pellicle formation [2]: do not
pattern of exopolysaccharide staining [3]: No such effect

1,3-diaminopropane [Molecule 6]
concentration needed for inhibition of biofilm formation [2]: > 5 mM

NCCCNCCCN [Molecule 1, N-(3-aminopropyl)propane-1,3-diamine]
reduction of Proteus mirabilis biofilm formation [4]: sufficient to reduce biofilm formation
staining of exopolysaccharide, S. aureus [5]: markedly diminished staining
effect on protein component of the matrix (TasA-mCherry) (TasA-mCherry): little or no effect
inhibition of biofilm formation on solid biofilm medium [1]: inhibit biofilm formation
inhibition of biofilm formation by S. aureus (S. aureus strain SCO1): inhibited the formation of submerged biofilms; also recorded: inhibit biofilm formation
cell growth (B. subtilis NCBI 3610): not significantly inhibited
effect on residual pellicle of exopolysaccharide mutant ([6]; ΔepsH, DS76, 25 μM norspermidine): little effect
effect on pellicle formation by amyloid fiber mutant ([6]; ΔtasA, FC55, 25 μM norspermidine): abolished pellicle formation
staining of exopolysaccharide, E. coli [7]: markedly diminished staining
biofilm-inhibitory activity (library of polyamines) [2]: exhibited biofilm-inhibitory activity
MBIC- Minimal Biofilm Inhibitory Concentration ([2]; B. subtilis biofilm inhibition assay): 25 to 50 µM
concentration at which biofilm formation was inhibited ([2]; authentic norspermidine, NCBI3610 pellicle): 25 µM
inhibition of pellicle formation [2]: inhibit biofilm formation
inhibition of biofilm formation by Pseudomonas [8]: inhibit biofilm formation
pattern of exopolysaccharide staining [3]: disrupted the relatively uniform, cell-associated pattern of staining
inhibition of biofilm formation by E. coli (E. coli strain MC4100): inhibited the formation of submerged biofilms

C1CNCCCNCCCNC1 [c, 1,5,9-triazacyclododecane]
inhibition of biofilm formation on solid biofilm medium [1]: inhibits biofilm formation
inhibition of pellicle formation [2]: inhibits biofilm formation

speramide [reference compound]
inhibition of biofilm formation on solid biofilm medium [1]: do not
inhibition of pellicle formation [2]: do not

NCCCNCCCNCCCN [Molecule 2, N′-[3-(3-aminopropylamino)propyl]propane-1,3-diamine]
reduction of Proteus mirabilis biofilm formation [4]: sufficient to reduce biofilm formation
inhibition of biofilm formation on solid biofilm medium [1]: inhibit biofilm formation
inhibition of biofilm formation by S. aureus (S. aureus strain SCO1): inhibited the formation of submerged biofilms; also recorded: inhibit biofilm formation
biofilm-inhibitory activity (library of polyamines) [2]: exhibited biofilm-inhibitory activity
inhibition of pellicle formation [2]: inhibit biofilm formation
disassembly of pre-formed pellicles (B. subtilis pellicles): triggered disassembly
inhibition of biofilm formation by Pseudomonas [8]: inhibit biofilm formation
inhibition of biofilm formation by E. coli (E. coli strain MC4100): inhibited the formation of submerged biofilms

NCCCN(CCCN)CCCN [Molecule 21, N^1,N^1-bis(3-aminopropyl)propane-1,3-diamine]
biofilm-inhibitory activity (library of polyamines) [2]: did not block activity
